Measurements as given in BigSolDB 2.1.

CC(=O)Oc1ccc(C(c2ccc(OC(C)=O)cc2)c2ccccn2)cc1
solubility (mole fraction)
Conditions	278.15 K	283.15 K	288.15 K	293.15 K	298.15 K	303.15 K	308.15 K	313.15 K	318.15 K	323.15 K
in ethanol	0.000239	0.000333	0.000452	0.000618	0.000835	0.0011	0.00145	0.00192	0.0025	0.00322
in isopropanol	0.000113	0.000162	0.000225	0.000311	0.000425	0.000579	0.000777	0.00104	0.00139	0.00179
in methanol	0.000551	0.000716	0.000931	0.00119	0.0015	0.0019	0.00239	0.00292	0.00364	0.00449
in water	9.39e-08	1.13e-07	1.35e-07	1.62e-07	1.91e-07	2.25e-07	2.64e-07	3.08e-07	3.57e-07	4.13e-07
